Legend:
[1] = shake flask on a mixture of 185; loss from the water phase only; LC-QTOF peak areas; conditions: room
[2] = shake flask on a mixture of 185; loss from the water phase only; LC-Orbitrap peak areas; conditions: room

| SMILES | log partition 1-octanol / HPLC water, unbuffered, traces of methanol / DMSO [1] [log10] | log partition butyl acetate / HPLC water, unbuffered, traces of methanol / DMSO [1] [log10] | log partition chloroform / HPLC water, unbuffered, traces of methanol / DMSO [1] [log10] | log partition cyclohexane / HPLC water, unbuffered, traces of methanol / DMSO [1] [log10] | log partition dichloromethane / HPLC water, unbuffered, traces of methanol / DMSO [1] [log10] | log partition n-hexane / HPLC water, unbuffered, traces of methanol / DMSO [1] [log10] | log partition n-octane / HPLC water, unbuffered, traces of methanol / DMSO [1] [log10] | log partition n-undecane / HPLC water, unbuffered, traces of methanol / DMSO [1] [log10] | log partition oleylalcohol / HPLC water, unbuffered, traces of methanol / DMSO [1] [log10] | log partition toluene / HPLC water, unbuffered, traces of methanol / DMSO [1] [log10] | log partition 1-octanol / HPLC water, unbuffered, traces of methanol / DMSO [2] [log10] | log partition butyl acetate / HPLC water, unbuffered, traces of methanol / DMSO [2] [log10] | log partition chloroform / HPLC water, unbuffered, traces of methanol / DMSO [2] [log10] | log partition cyclohexane / HPLC water, unbuffered, traces of methanol / DMSO [2] [log10] | log partition dichloromethane / HPLC water, unbuffered, traces of methanol / DMSO [2] [log10] | log partition n-hexane / HPLC water, unbuffered, traces of methanol / DMSO [2] [log10] | log partition n-octane / HPLC water, unbuffered, traces of methanol / DMSO [2] [log10] | log partition n-undecane / HPLC water, unbuffered, traces of methanol / DMSO [2] [log10] | log partition oleylalcohol / HPLC water, unbuffered, traces of methanol / DMSO [2] [log10] | log partition toluene / HPLC water, unbuffered, traces of methanol / DMSO [2] [log10] |
| --- | --- | --- | --- | --- | --- | --- | --- | --- | --- | --- | --- | --- | --- | --- | --- | --- | --- | --- | --- | --- |
| Oc1c(Cl)cc(Cl)c(Cl)c1Cc1c(O)c(Cl)cc(Cl)c1Cl | 3.536 | 2.622 | 2.343 | 2.027 | 1.996 | 1.5 | 1.932 | 2.251 | 2.088 | 2.305 |  |  |  |  |  |  |  |  |  |  |
| CO/C=C(/C(=O)OC)c1ccccc1Oc1cc(Oc2ccccc2C#N)ncn1 | 2.62 | 3.136 | 2.817 | 1.291 | 2.944 | 0.8262 | 0.8047 | 0.5559 | 2.323 | 2.329 |  |  |  |  |  |  |  |  |  |  |
| CC(C)c1cccc(O)c1 |  |  |  |  |  |  |  |  |  |  | -0.1403 | -0.382 | 0.06183 | -0.6197 | -0.09834 | -0.5466 | -0.6932 | -0.7318 | -0.144 | -0.5154 |
| CCCCNS(=O)(=O)c1ccccc1 |  |  |  |  |  |  |  |  |  |  | 0.09093 | -0.4267 | 0.044 | -0.2649 | -0.02662 | -0.2215 | -0.4356 | -0.4781 | 0.1238 | -0.1107 |
| O=C1OC(=O)C2C3C=CC(C3)C12 (centres unmarked) |  |  |  |  |  |  |  |  |  |  | -0.9913 | -0.2228 | 0.8465 | -0.9247 | 1.732 | -0.7252 | -1.742 | -1.577 | 0.1202 | 0.5941 |
